# According to PubChem BioAssay (NCI):
#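 Exposure lasted 48 hours, with cells grown in 96-well plates and compounds tested at five concentrations. TGI denotes the concentration required for complete inhibition of growth.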
# Assays:
# Experiment in all cases: NCI anticancer screen, dose series, 48 h
# OVCAR-5 ovarian = tested on: OVCAR-5 ovarian
# K-562 leukemia = tested on: K-562 leukemia
# SK-MEL-5 melanoma = tested on: SK-MEL-5 melanoma
# ACHN renal = tested on: ACHN renal
# HT29 colon = tested on: HT29 colon
# LOX IMVI melanoma = tested on: LOX IMVI melanoma
# DMS 273 small cell lung = tested on: DMS 273 small cell lung
# MOLT-4 leukemia = tested on: MOLT-4 leukemia
# XF 498 CNS = tested on: XF 498 CNS
# COLO 205 colon = tested on: COLO 205 colon
# A549 NSCLC = tested on: A549 NSCLC
# DMS 114 small cell lung = tested on: DMS 114 small cell lung
# NCI-H226 lung = tested on: NCI-H226 lung
# HCT-15 colon = tested on: HCT-15 colon
# HCT-116 colon = tested on: HCT-116 colon
# RXF 393 renal = tested on: RXF 393 renal
# NCI-H460 lung = tested on: NCI-H460 lung
# M19-MEL melanoma = tested on: M19-MEL melanoma
# SK-OV-3 ovarian = tested on: SK-OV-3 ovarian
# UACC-62 melanoma = tested on: UACC-62 melanoma
# SW-620 colon = tested on: SW-620 colon
# KM12 colon = tested on: KM12 colon
# SN12C renal = tested on: SN12C renal
# CCRF-CEM leukemia = tested on: CCRF-CEM leukemia
# HCC-2998 colon = tested on: HCC-2998 colon
# SR leukemia = tested on: SR leukemia
# OVCAR-4 ovarian = tested on: OVCAR-4 ovarian
# EKVX NSCLC = tested on: EKVX NSCLC
# RPMI-8226 leukemia = tested on: RPMI-8226 leukemia
# UO-31 renal = tested on: UO-31 renal
# HL-60(TB) leukemia = tested on: HL-60(TB) leukemia
# SNB-78 CNS = tested on: SNB-78 CNS
# M14 melanoma = tested on: M14 melanoma
# KM20L2 colon = tested on: KM20L2 colon
# SF-268 CNS = tested on: SF-268 CNS
# DLD-1 colon = tested on: DLD-1 colon
# UACC-257 melanoma = tested on: UACC-257 melanoma
# SF-539 CNS = tested on: SF-539 CNS
# HOP-62 NSCLC = tested on: HOP-62 NSCLC
# NCI-H23 lung = tested on: NCI-H23 lung
# SF-295 CNS = tested on: SF-295 CNS
# U251 CNS = tested on: U251 CNS
# SNB-75 CNS = tested on: SNB-75 CNS
# SK-MEL-28 melanoma = tested on: SK-MEL-28 melanoma
# OVCAR-3 ovarian = tested on: OVCAR-3 ovarian
# SNB-19 CNS = tested on: SNB-19 CNS
# IGROV1 ovarian = tested on: IGROV1 ovarian
# LXFL 529 NSCLC = tested on: LXFL 529 NSCLC
# OVCAR-8 ovarian = tested on: OVCAR-8 ovarian
# TK-10 renal = tested on: TK-10 renal
# HOP-92 NSCLC = tested on: HOP-92 NSCLC
# SK-MEL-2 melanoma = tested on: SK-MEL-2 melanoma
# T-47D breast = tested on: T-47D breast
# PC-3 prostate = tested on: PC-3 prostate
# DU-145 prostate = tested on: DU-145 prostate
# MCF7 breast = tested on: MCF7 breast
# MDA-MB-435 = tested on: MDA-MB-435
# 786-0 renal = tested on: 786-0 renal
# CAKI-1 renal = tested on: CAKI-1 renal
# BT-549 breast = tested on: BT-549 breast
# HS 578T breast = tested on: HS 578T breast
# NCI/ADR-RES ovarian = tested on: NCI/ADR-RES ovarian
# MDA-N = tested on: MDA-N
# A498 renal = tested on: A498 renal
# MDA-MB-231 breast = tested on: MDA-MB-231 breast
# MALME-3M melanoma = tested on: MALME-3M melanoma
# NCI-H522 lung = tested on: NCI-H522 lung
smiles,measurement,setting,value
CC1(C)OC2C(CO)OC(/N=C(\NC#N)Oc3ccccc3)C2O1 (stereo not given),TGI,OVCAR-5 ovarian,> 100 µM
same,TGI,K-562 leukemia,> 100 µM
same,TGI,SK-MEL-5 melanoma,> 100 µM
same,TGI,ACHN renal,> 100 µM
same,TGI,HT29 colon,> 100 µM
same,TGI,LOX IMVI melanoma,> 100 µM
same,TGI,DMS 273 small cell lung,> 100 µM
same,TGI,MOLT-4 leukemia,> 100 µM
same,TGI,XF 498 CNS,> 100 µM
same,TGI,COLO 205 colon,> 100 µM
same,TGI,A549 NSCLC,> 100 µM
same,TGI,DMS 114 small cell lung,> 100 µM
same,TGI,NCI-H226 lung,> 100 µM
same,TGI,HCT-15 colon,> 100 µM
same,TGI,HCT-116 colon,> 100 µM
same,TGI,RXF 393 renal,> 100 µM
same,TGI,NCI-H460 lung,> 100 µM
same,TGI,M19-MEL melanoma,> 100 µM
same,TGI,SK-OV-3 ovarian,> 100 µM
same,TGI,UACC-62 melanoma,> 100 µM
same,TGI,SW-620 colon,> 100 µM
same,TGI,KM12 colon,> 100 µM
same,TGI,SN12C renal,> 100 µM
same,TGI,CCRF-CEM leukemia,> 100 µM
same,TGI,HCC-2998 colon,> 100 µM
same,TGI,SR leukemia,> 100 µM
same,TGI,OVCAR-4 ovarian,> 100 µM
same,TGI,EKVX NSCLC,> 100 µM
same,TGI,RPMI-8226 leukemia,> 100 µM
same,TGI,UO-31 renal,> 100 µM
same,TGI,HL-60(TB) leukemia,> 100 µM
same,TGI,SNB-78 CNS,> 100 µM
same,TGI,M14 melanoma,> 100 µM
same,TGI,KM20L2 colon,> 100 µM
same,TGI,SF-268 CNS,> 100 µM
same,TGI,DLD-1 colon,> 100 µM
same,TGI,UACC-257 melanoma,> 100 µM
same,TGI,SF-539 CNS,> 100 µM
same,TGI,HOP-62 NSCLC,> 100 µM
same,TGI,NCI-H23 lung,> 100 µM
same,TGI,SF-295 CNS,> 100 µM
same,TGI,U251 CNS,> 100 µM
same,TGI,SNB-75 CNS,> 100 µM
same,TGI,SK-MEL-28 melanoma,> 100 µM
same,TGI,OVCAR-3 ovarian,> 100 µM
same,TGI,SNB-19 CNS,> 100 µM
same,TGI,IGROV1 ovarian,> 100 µM
same,TGI,LXFL 529 NSCLC,> 100 µM
same,TGI,OVCAR-8 ovarian,> 100 µM
same,TGI,TK-10 renal,> 100 µM
C=C1CN(C(=O)c2cc3cc(OC)c(OC)c(OC)c3[nH]2)c2cc([N+](=O)[O-])ccc21,TGI,HOP-92 NSCLC,> 100 µM
same,TGI,OVCAR-5 ovarian,> 100 µM
same,TGI,K-562 leukemia,> 100 µM
same,TGI,SK-MEL-5 melanoma,> 100 µM
same,TGI,SK-MEL-2 melanoma,> 100 µM
same,TGI,HT29 colon,> 100 µM
same,TGI,T-47D breast,> 100 µM
same,TGI,LOX IMVI melanoma,> 100 µM
same,TGI,PC-3 prostate,> 100 µM
same,TGI,DU-145 prostate,> 100 µM
same,TGI,MOLT-4 leukemia,> 100 µM
same,TGI,COLO 205 colon,> 100 µM
same,TGI,A549 NSCLC,> 100 µM
same,TGI,NCI-H226 lung,> 100 µM
same,TGI,HCT-15 colon,> 100 µM
same,TGI,HCT-116 colon,> 100 µM
same,TGI,RXF 393 renal,> 100 µM
same,TGI,NCI-H460 lung,> 100 µM
same,TGI,SK-OV-3 ovarian,> 100 µM
same,TGI,UACC-62 melanoma,> 100 µM
same,TGI,SW-620 colon,> 100 µM
same,TGI,KM12 colon,> 100 µM
same,TGI,MCF7 breast,> 100 µM
same,TGI,SN12C renal,> 100 µM
same,TGI,HCC-2998 colon,> 100 µM
same,TGI,SR leukemia,> 100 µM
same,TGI,OVCAR-4 ovarian,> 100 µM
same,TGI,EKVX NSCLC,> 100 µM
same,TGI,RPMI-8226 leukemia,> 100 µM
same,TGI,UO-31 renal,> 100 µM
same,TGI,MDA-MB-435,> 100 µM
same,TGI,HL-60(TB) leukemia,> 100 µM
same,TGI,786-0 renal,> 100 µM
same,TGI,M14 melanoma,> 100 µM
same,TGI,SF-268 CNS,> 100 µM
same,TGI,UACC-257 melanoma,> 100 µM
same,TGI,SF-539 CNS,> 100 µM
same,TGI,CAKI-1 renal,> 100 µM
same,TGI,BT-549 breast,> 100 µM
same,TGI,NCI-H23 lung,> 100 µM
same,TGI,HS 578T breast,41.9 µM
same,TGI,NCI/ADR-RES ovarian,> 100 µM
same,TGI,MDA-N,> 100 µM
same,TGI,U251 CNS,> 100 µM
same,TGI,SNB-75 CNS,> 100 µM
same,TGI,A498 renal,> 100 µM
same,TGI,SK-MEL-28 melanoma,> 100 µM
same,TGI,OVCAR-3 ovarian,> 100 µM
same,TGI,MDA-MB-231 breast,88.5 µM
same,TGI,SNB-19 CNS,> 100 µM
same,TGI,IGROV1 ovarian,> 100 µM
same,TGI,OVCAR-8 ovarian,> 100 µM
same,TGI,TK-10 renal,> 100 µM
same,TGI,MALME-3M melanoma,> 100 µM
COc1c(Cl)ccc(Cl)c1-c1nnc(-c2c(Cl)c(Cl)c(Cl)c(Cl)c2-c2nc3ccc(C(=O)c4ccccc4)cc3[nH]2)o1,TGI,HOP-92 NSCLC,> 100 µM
same,TGI,OVCAR-5 ovarian,> 100 µM
same,TGI,K-562 leukemia,> 100 µM
same,TGI,SK-MEL-5 melanoma,36 µM
same,TGI,ACHN renal,> 100 µM
same,TGI,SK-MEL-2 melanoma,> 100 µM
same,TGI,HT29 colon,> 100 µM
same,TGI,T-47D breast,> 100 µM
same,TGI,LOX IMVI melanoma,> 100 µM
same,TGI,PC-3 prostate,> 100 µM
same,TGI,DU-145 prostate,> 100 µM
same,TGI,MOLT-4 leukemia,> 100 µM
same,TGI,COLO 205 colon,78.2 µM
same,TGI,A549 NSCLC,> 100 µM
same,TGI,NCI-H226 lung,78.5 µM
same,TGI,HCT-15 colon,> 100 µM
same,TGI,HCT-116 colon,> 100 µM
same,TGI,RXF 393 renal,65.4 µM
same,TGI,SK-OV-3 ovarian,> 100 µM
same,TGI,SW-620 colon,> 100 µM
same,TGI,KM12 colon,> 100 µM
same,TGI,MCF7 breast,> 100 µM
same,TGI,SN12C renal,> 100 µM
same,TGI,CCRF-CEM leukemia,91.7 µM
same,TGI,SR leukemia,> 100 µM
same,TGI,OVCAR-4 ovarian,> 100 µM
same,TGI,EKVX NSCLC,> 100 µM
same,TGI,RPMI-8226 leukemia,87.4 µM
same,TGI,UO-31 renal,> 100 µM
same,TGI,NCI-H522 lung,> 100 µM
same,TGI,MDA-MB-435,68 µM
same,TGI,HL-60(TB) leukemia,> 100 µM
same,TGI,786-0 renal,> 100 µM
same,TGI,M14 melanoma,> 100 µM
same,TGI,SF-268 CNS,> 100 µM
same,TGI,UACC-257 melanoma,> 100 µM
same,TGI,SF-539 CNS,54 µM
same,TGI,HOP-62 NSCLC,> 100 µM
same,TGI,CAKI-1 renal,> 100 µM
same,TGI,BT-549 breast,> 100 µM
same,TGI,NCI-H23 lung,> 100 µM
same,TGI,HS 578T breast,> 100 µM
same,TGI,NCI/ADR-RES ovarian,> 100 µM
same,TGI,MDA-N,46.4 µM
same,TGI,SF-295 CNS,85.7 µM
same,TGI,U251 CNS,> 100 µM
same,TGI,SNB-75 CNS,> 100 µM
same,TGI,A498 renal,85.5 µM
same,TGI,SK-MEL-28 melanoma,> 100 µM
same,TGI,OVCAR-3 ovarian,> 100 µM
same,TGI,MDA-MB-231 breast,> 100 µM
same,TGI,SNB-19 CNS,> 100 µM
same,TGI,IGROV1 ovarian,> 100 µM
same,TGI,OVCAR-8 ovarian,> 100 µM
same,TGI,TK-10 renal,> 100 µM
same,TGI,MALME-3M melanoma,> 100 µM
